How the values were obtained:
[1] = target: Transcriptional enhancer factor TEF-3 (Homo sapiens, UniProt Q15561); assay: Inhibition of His-tagged TEAD4 (unknown origin) preincubated for 0.5 to 4 hrs followed by biotinylated lipid pocket probe addition and measured after 60 min by TR-FRET assay
[2] = target: Transcriptional enhancer factor TEF-5 (Homo sapiens, UniProt Q99594); assay: Inhibition of His-tagged TEAD3 (unknown origin) preincubated for 0.5 to 4 hrs followed by biotinylated lipid pocket probe addition and measured after 60 min by TR-FRET assay
Transcriptional enhancer factor TEF-5, sequence (Q99594 whole entry): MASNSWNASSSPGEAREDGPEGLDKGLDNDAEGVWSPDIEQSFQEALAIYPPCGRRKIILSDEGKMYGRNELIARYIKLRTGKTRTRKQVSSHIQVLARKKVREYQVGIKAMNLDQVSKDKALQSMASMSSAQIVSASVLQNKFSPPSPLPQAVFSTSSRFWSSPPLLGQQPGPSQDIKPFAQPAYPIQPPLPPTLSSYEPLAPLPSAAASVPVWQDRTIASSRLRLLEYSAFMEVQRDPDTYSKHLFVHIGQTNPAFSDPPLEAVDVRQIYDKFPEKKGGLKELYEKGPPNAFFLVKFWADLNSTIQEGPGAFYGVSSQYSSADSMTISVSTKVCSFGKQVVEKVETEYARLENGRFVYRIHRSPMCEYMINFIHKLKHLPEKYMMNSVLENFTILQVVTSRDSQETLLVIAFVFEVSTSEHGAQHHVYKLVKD

[3] = target: Transcriptional enhancer factor TEF-1 (Homo sapiens, UniProt P28347); assay: Inhibition of His-tagged TEAD1 (unknown origin) preincubated for 0.5 to 4 hrs followed by biotinylated lipid pocket probe addition and measured after 60 min by TR-FRET assay
Transcriptional enhancer factor TEF-1, sequence (P28347 whole entry): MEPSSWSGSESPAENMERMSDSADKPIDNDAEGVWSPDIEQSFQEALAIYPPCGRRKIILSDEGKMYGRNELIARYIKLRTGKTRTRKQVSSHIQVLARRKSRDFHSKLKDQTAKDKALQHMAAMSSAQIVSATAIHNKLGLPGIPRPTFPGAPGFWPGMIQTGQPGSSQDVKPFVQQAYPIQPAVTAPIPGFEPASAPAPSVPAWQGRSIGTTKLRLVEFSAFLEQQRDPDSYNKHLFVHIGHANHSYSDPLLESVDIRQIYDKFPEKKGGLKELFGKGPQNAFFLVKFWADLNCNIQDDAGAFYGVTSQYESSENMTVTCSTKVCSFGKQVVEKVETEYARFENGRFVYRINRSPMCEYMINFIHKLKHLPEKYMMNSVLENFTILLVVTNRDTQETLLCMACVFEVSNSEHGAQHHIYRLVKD

[4] = target: Transcriptional enhancer factor TEF-4 (Homo sapiens, UniProt Q15562); assay: Inhibition of His-tagged TEAD2 (unknown origin) preincubated for 0.5 to 4 hrs followed by biotinylated lipid pocket probe addition and measured after 60 min by TR-FRET assay
Transcriptional enhancer factor TEF-4, sequence (Q15562 whole entry): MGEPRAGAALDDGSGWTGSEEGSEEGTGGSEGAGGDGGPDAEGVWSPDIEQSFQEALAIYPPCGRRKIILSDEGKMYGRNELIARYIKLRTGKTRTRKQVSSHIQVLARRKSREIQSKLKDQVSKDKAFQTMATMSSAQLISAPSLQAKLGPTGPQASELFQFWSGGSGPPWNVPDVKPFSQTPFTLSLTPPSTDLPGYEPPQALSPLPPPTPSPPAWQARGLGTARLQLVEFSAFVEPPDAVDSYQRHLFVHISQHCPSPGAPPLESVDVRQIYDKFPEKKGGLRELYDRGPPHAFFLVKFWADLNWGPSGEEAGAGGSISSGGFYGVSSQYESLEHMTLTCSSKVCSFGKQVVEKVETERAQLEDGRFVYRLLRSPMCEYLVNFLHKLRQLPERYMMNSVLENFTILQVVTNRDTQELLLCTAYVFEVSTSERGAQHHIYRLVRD

Transcriptional enhancer factor TEF-3, sequence (Q15561 whole entry): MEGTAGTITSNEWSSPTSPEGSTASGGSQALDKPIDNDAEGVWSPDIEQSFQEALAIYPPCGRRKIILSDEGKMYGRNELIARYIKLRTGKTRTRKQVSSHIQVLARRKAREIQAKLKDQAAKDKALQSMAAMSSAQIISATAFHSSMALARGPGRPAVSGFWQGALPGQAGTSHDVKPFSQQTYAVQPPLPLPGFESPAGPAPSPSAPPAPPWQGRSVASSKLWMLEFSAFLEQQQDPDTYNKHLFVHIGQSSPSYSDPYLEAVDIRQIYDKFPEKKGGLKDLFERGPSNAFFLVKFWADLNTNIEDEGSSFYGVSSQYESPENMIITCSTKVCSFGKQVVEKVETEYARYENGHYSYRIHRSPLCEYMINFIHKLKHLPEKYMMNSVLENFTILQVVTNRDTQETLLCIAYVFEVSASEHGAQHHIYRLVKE

C#Cc1ccnc2c1c(C1CN(C(=O)C=C)C1)nn2-c1ccc(OC(F)(F)F)cc1
IC50 [1]: 9 nM
IC50 [2]: 5 nM
IC50 [3]: 4 nM
IC50 [4]: 2 nM

O=C(/C=C/CO)N1CC(c2nn(-c3ccc(OC(F)(F)F)cc3)c3nccc(Cl)c23)C1
IC50 [1]: 3 nM
IC50 [3]: 8 nM

— ChEMBL document CHEMBL5370627, “Novel Indazole Compounds as TEAD Inhibitors for Treating Cancer” (ACS Med Chem Lett, 2023)
